# Key:
# Format in all cases: cell-based
# RAMP3-CLR (AM2 receptor) = target: T1, RAMP3-CLR (AM2 receptor) (Homo sapiens, UniProt O60896+Q16602); assay: S. cerevisiae growth assay, GPA1/Gαs chimera, RAMP3 + CLR; conditions: percentage of yeast strain MMY11 (lacking GPA1); 20 h; mean ± S.E., n = 8
# T1 construct: FLAG; expressed in transfected cells; host or cells: HEK-293 or HEK-293S cells, transient transfection, 1:1 RAMP:CLR
# Protocol: FIGURE 1. […] Reporter gene activity was determined following 20 h of stimulation with each ligand. Data are expressed as a percentage of the maximum response observed in yeast strain MMY11 (lacking GPA1) and are means ± S.E. of n individual data sets. […] Data were determined as statistically different from the cognate ligand for each receptor (*, p < 0.05; **, p < 0.01; ***, p < 0.001) using a one-way ANOVA with Bonferroni's post-test.
# General yeast procedures were performed as described previously ([22], [24]). The human CLR was introduced into yeast cells under the control of the PGK promoter using a plasmid containing ura3 (pDT-PGK). […] Receptor signaling was measured using the yeast growth assay as described previously ([24]). […] A fluorescein signal was detected as an increase in fluorescence (excitation wavelength = 485 nm, emission wavelength = 535 nm) as a measure of growth. Different concentrations of ligand (0.01 nM–100 μM) were assayed using 96-well plates, and fluorescence was detected using a Tecan Infinite M200 microplate reader (Tecan Ultra Evolution, Reading, UK) or a Mithras LB 940 microplate reader (Berthold Technologies, Harpenden, UK) for 20 h.
# Data analysis for cAMP assays was performed in GraphPad Prism 6.0f (San Diego, CA). […] To quantitate the ligand-dependent response in the yeast system, a strain lacking GPA1 (MMY11), grown in rich medium, was used as a standard ([72]). […]
# RAMP2-CLR (AM1 receptor) [1] = target: T2, RAMP2-CLR (AM1 receptor) (Homo sapiens, UniProt O60895+Q16602); assay: cAMP accumulation, HEK-293S cells, RAMP2 + CLR; conditions: HEK293S, untreated, percentage of maximal cAMP with 100 μM forskolin in presence of PTX, mean ± S.E., n = 5
# T2 construct: FLAG; expressed in transfected cells; host or cells: HEK-293 or HEK-293S cells, transient transfection, 1:1 RAMP:CLR
# T2 sequence (Q16602 23-461): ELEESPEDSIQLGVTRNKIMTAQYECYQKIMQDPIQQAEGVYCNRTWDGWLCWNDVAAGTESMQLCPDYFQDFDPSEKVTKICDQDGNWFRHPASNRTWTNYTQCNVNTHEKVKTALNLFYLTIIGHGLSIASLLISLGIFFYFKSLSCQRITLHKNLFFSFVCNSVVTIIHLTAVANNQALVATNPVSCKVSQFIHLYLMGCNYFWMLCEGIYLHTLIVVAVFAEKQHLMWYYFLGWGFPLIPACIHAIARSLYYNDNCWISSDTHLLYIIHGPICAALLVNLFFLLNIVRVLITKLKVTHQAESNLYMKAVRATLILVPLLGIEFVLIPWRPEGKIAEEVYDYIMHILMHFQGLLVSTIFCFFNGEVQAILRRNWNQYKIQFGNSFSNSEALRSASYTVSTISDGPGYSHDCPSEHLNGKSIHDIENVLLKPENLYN
# T2 sequence (O60895 43-175): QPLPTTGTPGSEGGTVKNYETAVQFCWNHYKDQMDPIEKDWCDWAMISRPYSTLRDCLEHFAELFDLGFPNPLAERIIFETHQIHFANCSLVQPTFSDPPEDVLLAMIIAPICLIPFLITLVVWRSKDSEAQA
# Protocol: HEK-293 cells were transfected with FuGENE 6 (Roche Applied Science) in accordance with the manufacturer's instructions using a 1:3 (w:v) DNA:FuGENE ratio and a 1:1 ratio of RAMP to CLR. […] The transfected cell lines were grown for 24–48 h prior to assaying.
# The transfected HEK-293 cells were washed in PBS, resuspended in stimulation buffer (PBS containing 0.1% BSA and 0.5 mM IBMX), and seeded at 2000 cells/well in 384-well white Optiplates. Ligands were added in the range of 1 pM to 1 mM, and cAMP accumulation was measured after 30 min of stimulation using a LANCE® cAMP detection kit (PerkinElmer Life Sciences). […] Plates were read using a Mithras LB 940 multimode microplate reader (Berthold Technologies). […] Values were converted to concentration using a cAMP standard curve performed in parallel.
# Data analysis for cAMP assays was performed in GraphPad Prism 6.0f (San Diego, CA). […] These values were then used to quantify signaling bias as change in log (τ/Ka) relative to the natural cognate ligand for the respective receptor ([41]). […] Statistical differences were analyzed using one-way ANOVA or Student's t test as appropriate with post hoc Bonferroni's or Dunnett's multiple comparisons, and p < 0.05 was considered significant. […] To quantitate the ligand-dependent response in the yeast system, a strain lacking GPA1 (MMY11), grown in rich medium, was used as a standard ([72]). […]
# RAMP2-CLR (AM1 receptor) [2] = target: T2, RAMP2-CLR (AM1 receptor); assay: S. cerevisiae growth assay, GPA1/Gαi chimera, RAMP2 + CLR; conditions: percentage of yeast strain MMY11 (lacking GPA1); 20 h; mean ± S.E., n = 6
# Protocol: FIGURE 3. […] Reporter gene activity was determined following 20 h of stimulation.
# General yeast procedures were performed as described previously ([22], [24]). The human CLR was introduced into yeast cells under the control of the PGK promoter using a plasmid containing ura3 (pDT-PGK). The three human RAMPs were introduced into yeast under the control of the GAPDH promoter using plasmids containing leu2 (p425-GPD) ([25]). S. cerevisiae dual reporter strains expressing chimeras of yeast GPA1(1–467) (GPA1/Gα) with the five C-terminal amino acids of […] human G proteins representing Gαs, Gα16, Gαq, Gαo, Gαi1/2, Gαi3, Gαz, Gα12, Gα13, and Gα14 (MMY84–MMY93) were used in this study ([52]). […] Receptor signaling was measured using the yeast growth assay as described previously ([24]). […] A fluorescein signal was detected as an increase in fluorescence (excitation wavelength = 485 nm, emission wavelength = 535 nm) as a measure of growth. Different concentrations of ligand (0.01 nM–100 μM) were assayed using 96-well plates, and fluorescence was detected using a Tecan Infinite M200 microplate reader (Tecan Ultra Evolution, Reading, UK) or a Mithras LB 940 microplate reader (Berthold Technologies, Harpenden, UK) for 20 h. […]
# T1 sequence (Q16602 23-461): as the sequence (Q16602 23-461) above
# T1 sequence (O60896 24-148): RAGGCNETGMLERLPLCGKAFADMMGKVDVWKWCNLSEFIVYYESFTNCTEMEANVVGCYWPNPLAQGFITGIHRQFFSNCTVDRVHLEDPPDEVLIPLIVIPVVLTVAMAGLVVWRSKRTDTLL
Emax (RAMP3-CLR (AM2 receptor)) [%],Emax (RAMP2-CLR (AM1 receptor) [1]) [%],Emax (RAMP2-CLR (AM1 receptor) [2]) [%],Structure (SMILES)
25.5 ± 3.6,–,–,"CC[C@H](C)[C@H](NC(=O)[C@H](CCC(N)=O)NC(=O)[C@H](Cc1c[nH]cn1)NC(=O)[C@H](C)NC(=O)[C@H](CC(C)C)NC(=O)[C@H](CCCCN)NC(=O)[C@H](CCC(N)=O)NC(=O)[C@@H](NC(=O)[C@@H](NC(=O)[C@@H]1CSSC[C@H](NC(=O)CNC(=O)[C@H](Cc2ccccc2)NC(=O)[C@H](CO)NC(=O)[C@H](CCCNC(=N)N)NC(=O)[C@H](CC(C)C)NC(=O)CNC(=O)[C@H](CCC(N)=O)NC(=O)[C@H](Cc2ccccc2)NC(=O)[C@H](CC(N)=O)NC(=O)[C@H](CC(N)=O)NC(=O)[C@H](CCSC)NC(=O)[C@H](CO)NC(=O)[C@H](CCC(N)=O)NC(=O)[C@H](CCCNC(=N)N)NC(=O)[C@@H](N)Cc2ccc(O)cc2)C(=O)N[C@@H](CCCNC(=N)N)C(=O)N[C@@H](Cc2ccccc2)C(=O)NCC(=O)N[C@@H]([C@@H](C)O)C(=O)N1)[C@@H](C)O)C(C)C)C(=O)N[C@@H](Cc1ccc(O)cc1)C(=O)N[C@@H](CCC(N)=O)C(=O)N[C@@H](Cc1ccccc1)C(=O)N[C@H](C(=O)N[C@@H](CC(=O)O)C(=O)N[C@@H](CCCCN)C(=O)N[C@@H](CC(=O)O)C(=O)N[C@@H](CCCCN)C(=O)N[C@@H](CC(=O)O)C(=O)N[C@@H](CC(N)=O)C(=O)N[C@H](C(=O)N[C@@H](C)C(=O)N1CCC[C@H]1C(=O)N[C@@H](CCCNC(=N)N)C(=O)N[C@@H](CO)C(=O)N[C@@H](CCCCN)C(=O)N[C@H](C(=O)N[C@@H](CO)C(=O)N1CCC[C@H]1C(=O)N[C@@H](CCC(N)=O)C(=O)NCC(=O)N[C@@H](Cc1ccc(O)cc1)C(N)=O)[C@@H](C)CC)C(C)C)[C@@H](C)O [AM, adrenomedullin]"
–,40.3 ± 1.5,15.7 ± 2.5,"CSCC[C@H](NC(=O)[C@H](CC(C)C)NC(=O)[C@H](CCC(N)=O)NC(=O)[C@H](Cc1c[nH]c2ccccc12)NC(=O)[C@H](CC(C)C)NC(=O)[C@H](CCCNC(=N)N)NC(=O)[C@H](Cc1c[nH]cn1)NC(=O)[C@H](CO)NC(=O)[C@H](CC(C)C)NC(=O)[C@H](CC(N)=O)NC(=O)[C@H](CCC(N)=O)NC(=O)[C@@H](NC(=O)[C@H](CCC(N)=O)NC(=O)[C@@H]1CSSC[C@H](NC(=O)CNC(=O)[C@@H](NC(=O)[C@H](CCCNC(=N)N)NC(=O)[C@H](CC(C)C)NC(=O)[C@H](CC(C)C)NC(=O)[C@H](CCC(N)=O)NC(=O)[C@H](C)NC(=O)[C@H](CCC(N)=O)NC(=O)[C@@H](N)[C@@H](C)O)C(C)C)C(=O)N[C@@H](C(C)C)C(=O)N[C@@H](CC(C)C)C(=O)NCC(=O)N[C@@H]([C@@H](C)O)C(=O)N1)C(C)C)C(=O)NCC(=O)N1CCC[C@H]1C(=O)N[C@@H](C)C(=O)NCC(=O)N[C@@H](CCCNC(=N)N)C(=O)N[C@@H](CCC(N)=O)C(=O)N[C@@H](CC(=O)O)C(=O)N[C@@H](CO)C(=O)N[C@@H](C)C(=O)N1CCC[C@H]1C(=O)N[C@H](C(=O)N[C@@H](CC(=O)O)C(=O)N1CCC[C@H]1C(=O)N[C@@H](CO)C(=O)N[C@@H](CO)C(=O)N1CCC[C@H]1C(=O)N[C@@H](Cc1c[nH]cn1)C(=O)N[C@@H](CO)C(=O)N[C@@H](Cc1ccc(O)cc1)C(N)=O)C(C)C [AM2, adrenomedullin 2]"
